Measurements taken from patent US10106534B2 (CELGENE QUANTICEL RESEARCH, INC., priority 2014, dated 2018).

How the values were obtained:
JMJD3 = JMJD3 (Homo sapiens, UniProt O15054); assay: In vitro enzyme inhibition assay for JMJD3 activity (TR-FRET); type: biochemical
Experimental: This assay determines the ability of a test compound to inhibit JMJD3 demethylase activity.
The enzymatic assay of JMJD3 activity is based upon Time Resolved-Fluorescence Resonance Energy Transfer (TR-FRET) detection. […] Reaction product was determined quantitatively by TR-FRET after the addition of detection reagent Phycolink Streptavidin-allophycocyanin (Prozyme) and Europium-anti-di-methylated histone H3 lysine 27 (H3K27me2) antibody (PerkinElmer) in the presence of 5 mM EDTA in LANCE detection buffer (PerkinElmer) at a final concentration of 50 nM and 1 nM, respectively.
The reaction mixture was incubated at room temperature for 30 minutes, and terminated by the addition of 6 μL of 5 mM EDTA in LANCE detection buffer containing 100 nM Phycolink Streptavidin-allophycocyanin and 2 nM Europium-anti-H3K27me2 antibody.

[1] = system: KYSE-150 esophageal carcinoma cell line; assay: In vitro cell-based assay: cellular proliferation via BrdU incorporation (ELISA); parameters: species or system human; settings: Homo sapiens, KYSE-150, 168 hours compound incubation
How it was run: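 KYSE-150 cells (JMJD2C-amplified; SMAD4 and TP53 mutant), 2,000/well, were treated after overnight attachment with an 11-point series (100 μM to 2 nM) for 168 h. Proliferation was read by BrdU ELISA (2 h labelling, anti-BrdU-peroxidase, TMB, 450 nm) and IC50 fitted.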

JMJD2C = JMJD2C (Homo sapiens (Human), UniProt Q9H3R0); assay: In vitro enzyme inhibition assay for JMJD2C activity (TR-FRET); type: biochemical
How it was run: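 Baculovirus JMJD2C (AA 2-372), 0.3 nM, with 300 nM biotin-H3K9me3 peptide and 2 μM α-ketoglutarate in HEPES pH 7.3 containing Fe(II) and ascorbate, 30 min at room temperature, 11-point dilutions. H3K9me2 product by TR-FRET (Eu-antibody/streptavidin-APC, 665/615 ratio); IC50 fitted.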

Chain of JMJD2C (Q9H3R0 2-372): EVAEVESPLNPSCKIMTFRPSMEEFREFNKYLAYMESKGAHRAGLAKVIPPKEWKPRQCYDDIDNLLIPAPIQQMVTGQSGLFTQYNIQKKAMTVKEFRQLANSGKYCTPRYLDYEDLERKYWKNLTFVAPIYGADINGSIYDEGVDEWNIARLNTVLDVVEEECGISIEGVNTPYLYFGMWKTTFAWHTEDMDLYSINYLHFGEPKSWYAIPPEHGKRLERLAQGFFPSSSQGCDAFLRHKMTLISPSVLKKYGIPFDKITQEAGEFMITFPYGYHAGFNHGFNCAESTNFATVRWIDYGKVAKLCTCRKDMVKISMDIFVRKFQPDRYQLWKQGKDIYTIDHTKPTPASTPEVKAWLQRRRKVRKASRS

IC50 (JMJD3) [nM]	IC50 [1] [nM]	IC50 (JMJD2C) [nM]	SMILES
1000 to 10000	≤ 100	100 to 1000	CCN(c1ccccc1)c1ccc2c(c1)OCC[C@H]2CNc1cnccc1C(=O)O [Example 24, 3-({[(4R)-7-[ethyl(phenyl)amino]-3,4-dihydro-2H-1-benzopyran-4-yl]methyl}amino)pyridine-4-carboxylic acid]
1000 to 10000	100 to 1000	100 to 1000	Cc1cnc(N(C)c2ccc3c(c2)CCC[C@H]3CNc2cnccc2C(=O)O)nc1 [Example 156, 3-({[(1R)-6-[methyl(5-methylpyrimidin-2-yl)amino]-1,2,3,4-tetrahydronaphthalen-1-yl]methyl}amino)pyridine-4-carboxylic acid]
1000 to 10000	≤ 100	100 to 1000	Cc1ccc(N(C)c2ccc3c(c2)CCC[C@H]3CNc2cnccc2C(=O)O)nc1 [Example 122, 3-({[(1R)-6-[methyl(5-methylpyridin-2-yl)amino]-1,2,3,4-tetrahydronaphthalen-1-yl]methyl}amino)pyridine-4-carboxylic acid]
1000 to 10000	≤ 100	100 to 1000	CN(c1ccc(N2CCOCC2)cc1)c1ccc2c(c1)CCC[C@H]2CNc1cnccc1C(=O)O [Example 170, 3-({[(1R)-6-{methyl[4-(morpholin-4-yl)phenyl]amino}-1,2,3,4-tetrahydronaphthalen-1-yl]methyl}amino)pyridine-4-carboxylic acid]
1000 to 10000	≤ 100	100 to 1000	CN(c1ccc(OCC2CC2)cc1)c1ccc2c(c1)CCC[C@H]2CNc1cnccc1C(=O)O [Example 209, 3-({[(1R)-6-{[4-(cyclopropylmethoxy)phenyl](methyl)amino}-1,2,3,4-tetrahydronaphthalen-1-yl]methyl}amino)pyridine-4-carboxylic acid]
